Measurements published in paper PMC8624998, “Synthesis and Antiproliferative Evaluation of 3-Chloroazetidin-2-ones with Antimitotic Activity: Heterocyclic Bridged Analogues of Combretastatin A-4” (Pharmaceuticals, 2021).
pIC50: −log10 of the molar value. Read-outs that look alike come from different tables or passages of the source.

Assays:
MCF-7 cells = assay: Annexin V/PI apoptotic assay; details: for total apoptotic cells (Annexin V-stained positive cells): 48 h
Protocol: The Annexin V/Propidium Iodide (PI) assay was used to detect both early- and late-stage apoptosis using flow cytometry, as previously reported [34]. Early apoptosis is detected by the presence of phosphatidylserine (PS) on the outer surface of the cell membrane. […] Cells were then analysed using flow cytometry. […] Cells were washed in binding buffer and then re-suspended in PI-containing binding buffer (1:1000). Samples were analysed without delay using the BD Accuri flow cytometer and the data analysed with GraphPad Prism software.
MCF-7 breast cancer cells were treated with 10n (50 and 500 nM) or CA-4 (50 nM) or control vehicle (0.1% ethanol (v/v)). The percentage of apoptotic cells was determined by staining with Annexin V-FITC and propidium iodide (PI). […] Values represent the mean of three independent experiments.

CAKI-1 = assay: NCI-60 5 dose screen, Renal Cancer; type: cell-based; details: Homo sapiens
NCI-H552 = assay: NCI-60 5 dose screen, NSC Lung Cancer; type: cell-based; details: Homo sapiens
[1] = NCI 60 cell line screen, full panel; type: cell-based; details: human
Source text: (§1) The novel 3-haloazetidinone compounds 10e, 11n and 16d were selected by NCI for further biological evaluation in the NCI 60 cell line screen following an initial Tier 1 profiling screen. […]. these values were in the sub-micromolar range for all the cell lines tested except for the breast cancer cell line T-47D, where the progesterone receptors are not regulated by estradiol. […]. [table]

NCI 60 cell line panel = assay: NCI 60 cell line screen, full panel; type: cell-based; details: for GI50: Homo sapiens; for LC50: read-out: LC50 (mean over NCI 60 panel)
Source text: as §1

MDA-MB-231 cells = assay: Cell viability assay, antiproliferative activity; type: cell-based; details: Homo sapiens, MDA-MB-231, 72 h, read-out: Antiproliferative Activity IC50 MDA-MB-231, 72 h
Source text: Selected β-lactam compounds were next evaluated in the triple negative cell line MDA-MB-231 (Table 4). […] These cancers are difficult to treat since they are generally not responsive to hormone therapies such as the selective oestrogen receptor modulator (SERM) tamoxifen, or aromatase inhibitors such as anastrozole, or to the monoclonal antibody Herceptin, which targets the HER2 receptor. There are fewer treatment options available for TNBC compared with ER+, PR+ and HER2+ breast cancers and the prognosis is poorer. […]. The human breast carcinoma cell line MCF-7 was purchased from the European Collection of Animal Cell Cultures (ECACC). Triple negative breast cancer Hs578T cells and its invasive variant Hs578Ts(i)8 were a kind gift from Dr. Susan McDonnell, School of Chemical and Bioprocess Engineering, University College Dublin. U266 cells were a gift from Dr. Tony McElligott, School of Medicine, St James’s Hospital, Trinity College Dublin. HT-29 cells were purchased from the European Collection of Cell Cultures (originating from a human adenocarcinoma of the colon). The human breast carcinoma cell line MDA-MB-231 and the HL-60 cells derived from a patient with acute myeloid leukaemia were both obtained from ECACC (Salisbury, UK). The SW-480 cells were a kind gift from Dr. Brian Flood, School of Biochemistry and Immunology, Trinity College Dublin. HEK-293T (normal epithelial embryonic kidney cells) were cultured in Dulbecco’s Modified Eagle’s Medium (DMEM) with GlutaMAXTM-I in the absence of non-essential amino acids. Human breast cancer MCF-7 cells and multiple myeloma U266 cells were cultured in Minimum Essential Media (MEM) with GlutaMAX™-I, supplemented with 1% (v/v) non-essential amino acids, 10% 2(v/v) foetal bovine serum (FBS) and 1% (v/v) penicillin/streptomycin 5000 U/mL. MDA-MB-231 cells were maintained in DMEM supplemented with 10% (v/v) foetal bovine serum, 2 mM L-glutamine and 100 μg/mL penicillin/streptomycin (complete medium). Colon cancer HT-29 and SW-480 and triple negative breast cancer Hs578T and its invasive variant Hs578T8i were cultured in DMEM with GlutaMAX™-I, with the same supplement in the absence of non-essential amino acids. Leukaemia HL-60 cancer cells were cultured in Roswell Park Memorial Institute Media (RPMI-1640) with GlutaMAX™-I, supplemented with 10% FCS media, and 100 μg/mL penicillin/streptomycin as above. Cell numbers were monitored using a haemocytometer. Cell culture flasks were incubated in a humidified incubator (5% CO2/95% air) at 37 °C. All cell lines were sub-cultured three times per week with trypsinisation using TrypLE Express (1X) required for adherent cell lines.
. All stock solutions and serial dilution in ethanol/DMSO were stored at -20 °C. All cells were seeded at a density of 2.5 × 10^4 cells/mL in a 96-well plate (200 μL per well). The cells were incubated in a […] atmosphere at 37 °C for 24 h, then treated with test compound (2 μL of stock solutions per 200-microlitre well) in ethanol to obtain a concentration range of 1 nM–200 μM for the study. The plates were then re-incubated for a further 72 h. Control wells contained an equivalent volume of the vehicle ethanol or DMSO (1% v/v). MTT cell viability assay: The culture medium was removed, and the cells were washed with phosphate buffered saline (PBS, […]). MTT (dissolved in PBS, […]) was added to obtain a final concentration of MTT (1 mg/mL). Cells were incubated at 37 °C for 3 h in the dark. Solubilisation was commenced by the addition of DMSO ([…]) and the cells were maintained at 20 °C in the dark for 20 min before reading the absorbance to ensure complete colour diffusion. The absorbance value of control cells (no added compound) was set to 100% cell viability and absorbance versus cell density per well was determined to assess cell viability using Graph-Pad Prism software. […]

[2] = Homo sapiens, MCF7, 48 h, read-out: Viable
[3] = 60 cell, NCI 60 panel mean, read-out: GI50 (mean over NCI 60 panel)
[4] = NCI 60 cancer cell line panel (mean over the panel), NCI 60 panel mean, read-out: LC50 (mean over NCI 60 panel)
[5] = 60 cell, NCI 60 panel mean, read-out: MID GI50 (full panel mean-graph mid-point)

SMILES	total apoptotic cells (Annexin V-stained positive cells) (MCF-7 cells; 50 nM) [%]	viability at 0.05 µM (MCF-7 cells; [2]) [%]	TGI (mean over NCI 60 panel) (NCI 60 cell line panel; NCI 60 panel mean) [nM]	LC50 (NCI 60 cell line panel; NCI 60 panel mean) [nM]	GI50 (NCI 60 cell line panel; [3]) [nM]	pIC50 (MDA-MB-231 cells; 10e and 11n results from NCI)	GI50 (NCI-H552; NCI-H552, read-out: GI50) [nM]	LC50 [1, 4] [nM]	GI50 (NCI 60 cell line panel; [5]) [nM]	further results
COc1ccc(C2C(Cl)C(=O)N2c2cc(OC)c(OC)c(OC)c2)cc1O (centres unmarked) [Compound 10n, 3-Chloro-4-(3-hydroxy-4-methoxy-phenyl)-1-(3,4,5-trimethoxyphenyl)azetidin-2-one]	29.8	66.9	–	–	–	–	–	–	–	total apoptotic cells (Annexin V-stained positive cells) (MCF-7 cells; 500 nM): 37%; viability at 0.5 µM (MCF-7 cells; [2]): 58.5%
COc1ccc(C2N(c3cc(OC)c(OC)c(OC)c3)C(=O)C2(Cl)Cl)cc1O (centres unmarked) [Compound 11n, 3,3-Dichloro-4-(3-hydroxy-4-methoxyphenyl)-1-(3,4,5-trimethoxyphenyl)azetidin-2-one]	–	–	10000	83200	–	–	–	–	–	GI50 (CAKI-1): 126 nM; GI50 (NCI-H552): 16.4 nM; LC50 ([1]; NCI 60 panel mean, read-out: LC50 (mean over NCI 60 panel)): 91200 nM; LC50 ([1]; all but one cell line for 10e, all but four cell lines for 11n, read-out: LC50 in individual cell lines): > 100000 nM; GI50 (NCI 60 cell line panel; 60 cell, read-out: GI50 (mean over NCI 60 panel), NCI 60 panel mean): 53.7 nM; GI50 (NCI 60 cell line panel; 60 cell, read-out: GI50 in individual cell lines, 43 of the cell lines investigated): < 100 nM; GI50 (NCI 60 cell line panel; 60 cell, read-out: GI50 value, CNS cancer cell lines): 19.9 to 51.4 nM; GI50 (NCI 60 cell line panel; 60 cell, read-out: GI50 value, non-small cell lung cancer cell lines): 16.4 to 46.4 nM; GI50 (NCI 60 cell line panel; 60 cell, read-out: GI50 value, prostate cancer cell lines): 35.3 to 35.9 nM; GI50 (NCI 60 cell line panel; 60 cell, read-out: MID GI50 (full panel mean-graph mid-point), NCI 60 panel mean): 53.7 nM; GI50 (NCI 60 cell line panel; read-out: GI50 value, breast cancer cell lines apart from T-47D): 22.6 to 42.8 nM; pIC50 (MDA-MB-231 cells): 7.50
COc1ccc(/C=C\c2cc(OC)c(OC)c(OC)c2)cc1O [CA-4, Combretastatin A-4]	34.6	61.8	10300	–	99	7.37	–	–	–	–
COc1ccc([C@H]2[C@H](Cl)C(=O)N2c2cc(OC)c(OC)c(OC)c2)cc1 (relative stereo) [Compound 10e trans, Trans-3-chloro-1-(3,4,5-trimethoxyphenyl)-4-(4-methoxyphenyl) azetidin-2-one]	–	–	–	–	74.1	7.16	20.7	81300	74.1	GI50 (CAKI-1; read-out: GI50): 122 nM; LC50 ([1]; NCI 60 cancer cell line panel, individual cell lines, all but one cell line for 10e, all but four cell lines for 11n, read-out: LC50 in individual cell lines): > 100000 nM; LC50 (NCI 60 cell line panel; NCI 60 panel mean, listed as 10e): 91200 nM
CCSc1ccc(C2C(Br)C(=O)N2c2cc(OC)c(OC)c(OC)c2)cc1 (centres unmarked) [Compound 16d, 3-Bromo-4-(4-(ethylthio)phenyl)-1-(3,4,5-trimethoxyphenyl)azetidin-2-one]	–	–	–	81300	–	–	158	83200	407	–
